Assay results published in patent US11918550B2, “Sensitization of cancer cells to differentiation therapy with mitochondrial uncoupler niclosamide ethanolamine” (The Board of Trustees of the Leland Stanford Junior …, priority 2020, dated 2024).

Columns and labels:
[1] = system: SK-N-BE(2) cells; assay: U-13C-glutamine isotope tracing (LC/MS); assay type: cell-based
Description: Metabolic analysis. For the metabolomics and isotope tracing analysis in vitro, cells were washed with cold PBS, lysed in 80% Ultra LC-MS acetonitrile on ice for 15 minutes, centrifuged at 20,000 g for 10 minutes at 4° C., and supernatant was subjected to mass spectrometry analysis. For the metabolomics analysis in vivo, 10-20 mg tissue were cut off on ice, rinsed if necessary to remove blood, and place in a 2 ml round-bottom cryovial. The tissues were homogenized by 3 times 10 s on/off bursts homogenization in 1 ml 80% methanol on dry ice. Transfer the homogenate to an Eppendorf tube and keep on liquid nitrogen while processing the remaining samples. Incubated all the samples in −80° C. for 30 minutes. After incubation, vortexed the samples for 5 seconds. Then centrifuged the samples at 20,000 g for 10 minutes at 4° C., and supernatant was subjected to mass spectrometry analysis. Resuspend the remaining cellular pellet in 100 ul protein lysis buffer and determine the protein concentration. Then calculate the total protein content per sample.
Liquid chromatography was performed using an Agilent 1290 Infinity LC system (Agilent, Santa Clara, US) coupled to a Q-TOF 6545 mass spectrometer (Agilent, Santa Clara, US). A hydrophilic interaction chromatography method (HILIC) with a BEH amide column (100×2.1 mm i.d., 1.7 μm; Waters) was used for compound separation at 35° C. with a flow rate of 0.3 ml/minutes. The mobile phase A consisted of 25 mM ammonium acetate and 25 mM ammonium hydroxide in water and mobile phase B was acetonitrile. The gradient elution was 0-1 minute, 85% B; 1-12 minutes, 85% B→65% B; 12-12.2 minutes, 65% B→40% B; 12.2-15 minutes, 40% B. After the gradient, the column was re-equilibrated at 85% B for 5 minutes. The overall runtime was 20 minutes, and the injection volume was 5 μL. Agilent Q-TOF was operated in negative mode and the relevant parameters were as listed: ion spray voltage, 3500 V; nozzle voltage, 1000 V; fragmentor voltage, 125 V; drying gas flow, 11 L/minutes; capillary temperature, 325° C., drying gas temperature, 350° C.; and nebulizer pressure, 40 psi. A full scan range was set at 50 to 1600 (m/z). The reference mass was 119.0363 and 980.0164. The acquisition rate was 2 spectra/s. Targeted analysis, isotopologues extraction and natural isotope abundance correction were performed by Agilent Profinder B.10.00 (Agilent Technologies).
Stable isotope tracing analysis. […] Then the culture medium was changed to DMEM/F-12, no glutamine (Gibco, 21331020) with 4 mM U-^13C5-glutamine (Cambridge Isotope Laboratories, CLM-1822-H) and 10% dialyzed FBS (Gibco, 26400044) under same treatment condition as above for 2 h. […] Then changed the medium to DMEM/F-12, no glutamine (Gibco, 21331020) with 4 mM 1-^13C-glutamine (Cambridge Isotope Laboratories, CLM-CLM-3612-PK) and 10% dialyzed FBS (Gibco, 26400044) for 2 h with same treatment under normoxia or hypoxia for 2 h.

[2] = system: NB16 cells; assay: Neurite outgrowth and β-tubulin III immunofluorescence (neuron differentiation); assay type: cell-based; conditions: 72-96 h
Description: (§1) Neurite outgrowth assay. The quantification of neurite was performed as described before. Shortly, 1×10^4 SK-N-BE(2) and NB16 cells were plated in a 12 well-plate per well. After overnight incubation, cells were treated with various conditions as indicated for 72 h. Then, images were taken by a Leica Florescent Microscope DMi8 in phase contrast mode (20× magnification). The lengths of the neurites were traced and quantified using the ImageJ plugin NeuronJ. For each sample, total neurite length was measured and normalized to the number of cell bodies, mean value from 3 biological replicates was reported. Immunofluorescence staining. SK-N-BE(2) and NB16 cells were seeded into 8-chamber slides (Thermo Fisher Scientific, 154534) with a density of 6×10^3 cells/well overnight and treated with indicated treatment for 72 h. Cells were fixed with 4% PFA in PBS with 0.1% Tween-20 at RT for 30 minutes followed by permeabilization with 0.1% Triton X-100 in PBS at room temperature for 10 min. The cells were washed with PBS twice and blocked with 2.5% horse serum in PBS at RT for 1 h. Then, cells were subjected to immunofluorescence staining with primary antibody at 4° C. overnight. After two washes with PBS, cells were incubated with Alexa Fluor 594-conjugated anti-rabbit secondary antibody (Life Technologies) at RT for 1 h followed by staining with DAPI (Vector Laboratories, H-1800-2). Images were acquired with Leica DMi8 microscope.

[3] = system: SK-N-BE(2) cells; assay: as above; assay type: cell-based; conditions: 72-96 h
Description: as §1

[4] = system: neuroblastoma cells; assay: Cell proliferation (cell counting); assay type: cell-based; conditions: 1 μM NEN vs DMSO
Description: (§2) Cell proliferation and clonogenic assay. 2×10^4 cells were seeded in 12 well-plate and allowed to attached overnight. […] After treatment, cells were counted using hemocytometer.

[5] = system: orthotopic neuroblastoma xenograft (SK-N-BE(2) cells); assay: H&E histology and immunohistochemistry of orthotopic tumors; assay type: in vivo, mice; conditions: diet 2000 ppm NEN vs control
[6] = system: RA-resistant neuroblastoma cells; assay: Cell proliferation (cell counting), NEN with RA; assay type: cell-based; conditions: NEN combined with RA, 3 days
Description: as §2

[7] = 1 μM NEN 3 h pretreatment then 2 h label

**Q.** What does the source list for `O=C(Nc1ccc([N+](=O)[O-])cc1Cl)c1cc(Cl)ccc1O` [NEN, 5-chloro-N-(2-chloro-4-nitrophenyl)-2-hydroxybenzamide compound with 2-aminoethanol (1:1)]?
**A.** labelling abundance of m+2 (2nd cycle) and m+½ (3rd cycle) aspartate [1, 7]: significantly increased; labelling abundance of m+2 (2nd cycle) and m+½ (3rd cycle) succinate [1, 7]: significantly increased; labelling percentage of m+3 (2nd cycle) α-KG [1, 7]: significantly increased; labelling percentage of m+½ (3rd cycle) α-KG [1, 7]: significantly increased; m+5 labelling abundance of 2-HG [1, 7]: significantly decreased; m+5 α-KG labelling from U-13C-glutamine [1, 7]: no significant increase; reductive carboxylation flux (labelling fraction of m+5 citrate, m+3 fumarate, m+3 malate) ([1]; U-13C-glutamine, 1 μM NEN, normoxia): significantly inhibited; neuron differentiation morphology, NEN combined with RA vs NEN alone ([2]; NB16, 1 μM NEN + 1 μM 13-cis-RA): more profound; neuron differentiation morphology (neurite length, β-tubulin III staining) ([2]; NB16, 1 μM NEN alone): induced; neuron differentiation morphology, NEN combined with RA vs NEN alone ([3]; 1 μM NEN + 1 μM 13-cis-RA): more profound; neuron differentiation morphology (neurite length, β-tubulin III staining) ([3]; 1 μM NEN alone): induced; cell proliferation [4]: significantly inhibited; N-Myc protein expression in xenografts (IHC) [5]: significantly reduced; enlarged prominent nucleoli in tumor cells (H&E) [5]: much fewer; β-catenin protein expression in xenografts (IHC) [5]: significantly reduced; RA-dependent proliferation arrest effect [6]: enhanced
